target: T1, PknB (Mycobacterium tuberculosis, UniProt P9WI81); assay: biochemical; design: species or system M. tuberculosis; details: 3 nM PknB, 6 uM GarA, 3 μM ATP, 30 min; competitive tight-binding fit; several symbols in a cell = repeat determinations
T1 construct: made in house
T1 sequence (P9WI81 whole entry): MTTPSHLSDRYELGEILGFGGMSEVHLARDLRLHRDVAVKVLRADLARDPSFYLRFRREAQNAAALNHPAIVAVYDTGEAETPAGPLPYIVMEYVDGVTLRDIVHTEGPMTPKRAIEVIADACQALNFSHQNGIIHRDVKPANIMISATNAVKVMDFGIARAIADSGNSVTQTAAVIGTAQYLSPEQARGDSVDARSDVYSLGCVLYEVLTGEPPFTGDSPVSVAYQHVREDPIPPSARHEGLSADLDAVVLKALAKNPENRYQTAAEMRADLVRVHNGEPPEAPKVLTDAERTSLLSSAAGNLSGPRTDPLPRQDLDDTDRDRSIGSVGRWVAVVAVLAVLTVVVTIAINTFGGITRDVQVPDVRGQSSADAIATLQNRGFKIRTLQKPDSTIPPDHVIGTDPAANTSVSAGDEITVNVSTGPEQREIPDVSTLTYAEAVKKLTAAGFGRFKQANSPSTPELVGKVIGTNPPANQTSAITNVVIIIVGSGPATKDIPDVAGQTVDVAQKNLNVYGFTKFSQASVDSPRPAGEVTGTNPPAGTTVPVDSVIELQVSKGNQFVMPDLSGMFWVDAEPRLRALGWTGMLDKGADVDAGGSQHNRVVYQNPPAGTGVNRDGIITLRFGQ

| Compound | Ki Values |
| --- | --- |
| c1cc(Nc2cc(C3CC3)[nH]n2)nc(N2CCC(N3CCCCC3)CC2)n1 [Compound 65, N-(5-cyclopropyl-1H-pyrazol-3-yl)-2-[4-(1-piperidyl)-1-piperidyl]-pyrimidin-4-amine] | C, D, D |
| C#Cc1cnc(-c2ccc(C(=O)NCCNC(C)=O)s2)nc1Nc1cc(C2CC2)n[nH]1 [Compound 206, N-(2-acetamidoethyl)-5-(4-(5-cyclopropyl-1H-pyrazol-3-ylamino)-5-ethynylpyrimidin-2-yl)thiophene-2-carboxamide] | B**, B**, B* |
| NC(=O)c1ccc(Nc2nccc(Nc3cc(C4CC4)n[nH]3)n2)cc1 [Compound 60, 4-[[4-[(5-cyclopropyl-2H-pyrazol-3-yl)amino]pyrimidin-2-yl]amino]benzamide] | C, C, D |
| C#Cc1cnc(Nc2ccc(CC#N)cc2)nc1Nc1cc(C2CC2)[nH]n1 [Compound 101, 2-(4-(4-(5-Cyclopropyl-1H-pyrazol-3-ylamino)-5-ethynylpyrimidin-2-ylamino)phenyl)acetonitrile] | A*, A*, A |

same assay, conditions: 3 nM PknB, 6 uM GarA, 3 μM ATP, 30 min; competitive tight-binding fit; several symbols in a cell = repeat determinations; read-out: Ki Values

| Compound | Ki [nM] |
| --- | --- |
| CC(=O)Nc1cnc(-c2ccccc2)nc1Nc1cc(C2CC2)n(C(C)=O)n1 [Compound 3, N-[4-[(1-acetyl-5-cyclopropyl-pyrazol-3-yl)amino]-2-phenyl-pyrimidin-5-yl]acetamide] | > 4000 |
| CC(C)(C)NS(=O)(=O)C/C=C/c1cccc(Nc2cc(C3CC3)[nH]n2)n1 [Compound 269, 3-[6-[(5-cyclopropyl-1H-pyrazol-3-yl)amino]-2-pyridyl]-N-tert-butyl-prop-2-ene-1-sulfonamide] | 100 to 500 |
| C#Cc1cnc(N2CCN(C)CC2)nc1Nc1cc(C2CC2)[nH]n1 [Compound 177, N-(5-cyclopropyl-1H-pyrazol-3-yl)-5-ethynyl-2-(4-methylpiperazin-1-yl)-pyrimidin-4-amine] | 2000 to 4000 |
| Cc1cnc(-c2ccc(C(O)CO)s2)nc1Nc1cc(C2CC2)[nH]n1 (stereo not drawn) [Compound 326, 1-[5-[4-[(5-cyclopropyl-1H-pyrazol-3-yl)amino]-5-methyl-pyrimidin-2-yl]-2-thienyl]ethane-1,2-diol] | 10 to 50 |
| CC(C)(C)NS(=O)(=O)c1ccc(-c2nc(Nc3cc(C4CC4)[nH]n3)cc(C(=O)O)n2)s1 [Compound 278, 6-[(5-cyclopropyl-1H-pyrazol-3-yl)amino]-2-[5-(tert-butylsulfamoyl)-2-thienyl]-pyrimidine-4-carboxylic acid] | 100 to 500 |
| CC(=O)c1ccc(-c2ncc(Cl)c(Nc3cc(C4CC4)[nH]n3)n2)o1 [Compound 288, 1-[5-[5-chloro-4-[(5-cyclopropyl-1H-pyrazol-3-yl)amino]-pyrimidin-2-yl]-2-furyl]ethanone] | 100 to 500 |
| Nc1cccc(Nc2nccc(Nc3cc(C4CC4)n[nH]3)n2)c1 [Compound 100, N-(3-aminophenyl)-N′-(5-cyclopropyl-2H-pyrazol-3-yl)-pyrimidine-2,4-diamine] | 100 to 500 |
| NS(=O)(=O)c1ccc(-c2ncc(Cl)c(Nc3cc(C4CCCC4)[nH]n3)n2)s1 [Compound 235, 5-[5-chloro-4-[(5-cyclopentyl-1H-pyrazol-3-yl)amino]-pyrimidin-2-yl]thiophene-2-sulfonamide] | 10 to 50 |
| O=C(O)C(O)c1ccc(-c2ncc(Cl)c(Nc3cc(C4CC4)[nH]n3)n2)s1 (stereo not drawn) [Compound 219, 2-(5-(5-chloro-4-(5-cyclopropyl-1H-pyrazol-3-ylamino)pyrimidin-2-yl)thiophen-2-yl)-2-hydroxyacetic acid] | 100 to 500 |
| C#Cc1cnc(-c2ccc(C(O)C(=O)O)s2)nc1Nc1cc(C2CC2)[nH]n1 (stereo not drawn) [Compound 231, 2-[5-[4-[(5-cyclopropyl-1H-pyrazol-3-yl)amino]-5-ethynyl-pyrimidin-2-yl]-2-thienyl]-2-hydroxy-acetic acid] | 50 to 100 |
| NS(=O)(=O)c1ccc(-c2ncc(C(=O)O)c(Nc3cc(C4CC4)[nH]n3)n2)s1 [Compound 179, 4-(5-cyclopropyl-1H-pyrazol-3-ylamino)-2-(5-sulfamoylthiophen-2-yl)pyrimidine-5-carboxylic acid] | 500 to 1000 |
